Assay results as given in PubChem BioAssay AID248 (DTP/NCI, 2004).
Values joined by “and” are separate entries in the source; they are usually repeats but may differ in a detail not shown here. Equal entries are not always repeated. Toxic doses and inconclusive results are not listed. No stated cut-off is given here; in the data, active means T/C of 150% or more; inactive means T/C below 125%.

System: L1210 leukemia ip in BDF1 mice, survival T/C
Test: NCI In Vivo Anticancer Drug Screen. Data for tumor model L1210 Leukemia (intraperitoneal) in B6D2F1 (BDF1) mice
Conditions: higher = longer survival
How it was run: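 Tumor was transplanted into mice, which were then dosed with test compound or vehicle alone. Survival was recorded for each group, and the treated figure was expressed relative to the control figure.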

Measured: T/C

N/C(=N\O)c1cn(C2OC(CO)C(O)C2O)c2ncnc(N)c12 (stereo not drawn)
inactive: endpoint: mean survival time, dose: 0.2 mg/kg/injection, schedule: Q01DX015 (ip), vehicle: carboxymethylcellulose (CMC) 104 % of control | endpoint: mean survival time, dose: 0.25 mg/kg/injection, schedule: Q01DX009 (ip), vehicle: saline 117 % of control | endpoint: mean survival time, dose: 0.25 mg/kg/injection, schedule: Q03HX024 (ip), vehicle: saline 123 % of control | endpoint: mean survival time, dose: 0.3 mg/kg/injection, schedule: Q01DX015 (ip), vehicle: carboxymethylcellulose (CMC) 117 % of control | endpoint: mean survival time, dose: 0.44 mg/kg/injection, schedule: Q01DX015 (ip), vehicle: carboxymethylcellulose (CMC) 117 % of control | endpoint: mean survival time, dose: 0.5 mg/kg/injection, schedule: Q01DX005 (ip), vehicle: saline 118 % of control | endpoint: mean survival time, dose: 0.67 mg/kg/injection, schedule: Q01DX015 (ip), vehicle: carboxymethylcellulose (CMC) 120 % of control | endpoint: mean survival time, dose: 0.78 mg/kg/injection, schedule: Q01DX005 (ip), vehicle: saline 111 % of control | endpoint: mean survival time, dose: 1.56 mg/kg/injection, schedule: Q01DX005 (ip), vehicle: saline 110 % of control | endpoint: mean survival time, dose: 2.0 mg/kg/injection, schedule: Q03HX024 (ip), vehicle: saline 102 % of control and 107 % of control | endpoint: mean survival time, dose: 3.12 mg/kg/injection, schedule: Q01DX001 (ip), vehicle: other 121 % of control | endpoint: mean survival time, dose: 3.12 mg/kg/injection, schedule: Q01DX009 (ip), vehicle: saline 109 % of control | endpoint: mean survival time, dose: 3.13 mg/kg/injection, schedule: Q01DX001 (ip), vehicle: water 121 % of control | endpoint: mean survival time, dose: 4.0 mg/kg/injection, schedule: Q01DX001 (ip), vehicle: saline 117 % of control | endpoint: mean survival time, dose: 4.0 mg/kg/injection, schedule: Q01DX009 (oral), vehicle: saline 96 % of control | endpoint: mean survival time, dose: 4.0 mg/kg/injection, schedule: Q08DX002 (ip), vehicle: saline 122 % of control | endpoint: mean survival time, dose: 4.4 mg/kg/injection, schedule: Q01DX001 (ip), vehicle: carboxymethylcellulose (CMC) 124 % of control | endpoint: mean survival time, dose: 5.0 mg/kg/injection, schedule: Q01DX001 (ip), vehicle: carboxymethylcellulose (CMC) 124 % of control | endpoint: mean survival time, dose: 5.0 mg/kg/injection, schedule: Q01DX015 (ip), vehicle: carboxymethylcellulose (CMC) 108 % of control | endpoint: mean survival time, dose: 6.25 mg/kg/injection, schedule: Q01DX001 (ip), vehicle: other 122 % of control | endpoint: mean survival time, dose: 6.25 mg/kg/injection, schedule: Q01DX001 (ip), vehicle: water 114 % of control | endpoint: mean survival time, dose: 6.25 mg/kg/injection, schedule: Q01DX009 (ip), vehicle: saline 113 % of control | endpoint: mean survival time, dose: 8.0 mg/kg/injection, schedule: Q01DX001 (ip), vehicle: saline 124 % of control | endpoint: mean survival time, dose: 8.0 mg/kg/injection, schedule: Q01DX009 (ip), vehicle: saline 119 % of control and 121 % of control | endpoint: mean survival time, dose: 8.0 mg/kg/injection, schedule: Q01DX009 (oral), vehicle: saline 95 % of control | endpoint: mean survival time, dose: 16.0 mg/kg/injection, schedule: Q01DX001 (ip), vehicle: saline 119 % of control | endpoint: mean survival time, dose: 16.0 mg/kg/injection, schedule: Q01DX001 (oral), vehicle: saline 94 % of control | endpoint: mean survival time, dose: 16.0 mg/kg/injection, schedule: Q01DX009 (oral), vehicle: saline 95 % of control | endpoint: mean survival time, dose: 32.0 mg/kg/injection, schedule: Q01DX001 (oral), vehicle: saline 97 % of control | endpoint: mean survival time, dose: 32.0 mg/kg/injection, schedule: Q01DX009 (oral), vehicle: saline 94 % of control | endpoint: mean survival time, dose: 64.0 mg/kg/injection, schedule: Q01DX001 (oral), vehicle: saline 94 % of control | endpoint: mean survival time, dose: 128.0 mg/kg/injection, schedule: Q01DX001 (oral), vehicle: saline 90 % of control | endpoint: median survival time, dose: 0.5 mg/kg/injection, schedule: Q01DX009 (ip), vehicle: saline 118 % of control and 122 % of control | endpoint: median survival time, dose: 1.0 mg/kg/injection, schedule: Q01DX009 (ip), vehicle: saline 122 % of control
active: endpoint: mean survival time, dose: 0.39 mg/kg/injection, schedule: Q01DX009 (ip), vehicle: saline 150 % of control | endpoint: mean survival time, dose: 0.78 mg/kg/injection, schedule: Q01DX009 (ip), vehicle: saline 150 % of control | endpoint: mean survival time, dose: 1.0 mg/kg/injection, schedule: Q03HX008 (ip), vehicle: saline 160 % of control | endpoint: mean survival time, dose: 1.0 mg/kg/injection, schedule: Q03HX024 (ip), vehicle: saline 192 % of control | endpoint: mean survival time, dose: 1.3 mg/kg/injection, schedule: Q01DX009 (ip), vehicle: saline 159 % of control | endpoint: mean survival time, dose: 1.56 mg/kg/injection, schedule: Q01DX009 (ip), vehicle: saline 204 % of control | endpoint: mean survival time, dose: 2.0 mg/kg/injection, schedule: Q01DX009 (ip), vehicle: saline 158 % of control | endpoint: mean survival time, dose: 3.0 mg/kg/injection, schedule: Q01DX009 (ip), vehicle: saline 151 % of control | endpoint: mean survival time, dose: 3.12 mg/kg/injection, schedule: Q01DX005 (ip), vehicle: saline 156 % of control | endpoint: mean survival time, dose: 4.0 mg/kg/injection, schedule: Q01DX005 (ip), vehicle: saline 152 % of control | endpoint: mean survival time, dose: 4.0 mg/kg/injection, schedule: Q01DX009 (ip), vehicle: saline 153 % of control and 180 % of control | endpoint: mean survival time, dose: 5.0 mg/kg/injection, schedule: Q01DX009 (ip), vehicle: saline 158 % of control | endpoint: mean survival time, dose: 8.0 mg/kg/injection, schedule: Q01DX005 (ip), vehicle: saline 150 % of control | endpoint: mean survival time, dose: 8.0 mg/kg/injection, schedule: Q04DX003 (ip), vehicle: saline 151 % of control and 156 % of control | endpoint: mean survival time, dose: 16.0 mg/kg/injection, schedule: Q04DX003 (ip), vehicle: saline 186 % of control | endpoint: mean survival time, dose: 22.5 mg/kg/injection, schedule: Q01DX001 (ip), vehicle: saline 151 % of control | endpoint: mean survival time, dose: 25.0 mg/kg/injection, schedule: Q01DX001 (ip), vehicle: other 157 % of control | endpoint: mean survival time, dose: 25.0 mg/kg/injection, schedule: Q01DX001 (ip), vehicle: water 152 % of control | endpoint: mean survival time, dose: 32.0 mg/kg/injection, schedule: Q08DX002 (ip), vehicle: saline 154 % of control | endpoint: mean survival time, dose: 50.0 mg/kg/injection, schedule: Q01DX001 (ip), vehicle: other 150 % of control | endpoint: mean survival time, dose: 50.0 mg/kg/injection, schedule: Q01DX001 (ip), vehicle: water 159 % of control

N#C/C(=C\C1CCC(OCC2CCCCC2)CC1)C1CCC([N+](=O)[O-])CC1 (stereo not drawn)
inactive: endpoint: mean survival time, dose: 25.0 mg/kg/injection, schedule: Q04DX002 (ip), vehicle: saline with Tween-80 97 % of control | endpoint: mean survival time, dose: 50.0 mg/kg/injection, schedule: Q04DX002 (ip), vehicle: saline with Tween-80 102 % of control | endpoint: mean survival time, dose: 100.0 mg/kg/injection, schedule: Q04DX002 (ip), vehicle: saline with Tween-80 100 % of control and 91 % of control

O=C(O)c1ccccc1C(=O)NCCCc1ccccc1
inactive: endpoint: mean survival time, dose: 100.0 mg/kg/injection, schedule: Q01DX001 (ip), vehicle: other 98 % of control | endpoint: mean survival time, dose: 200.0 mg/kg/injection, schedule: Q01DX001 (ip), vehicle: other 98 % of control | endpoint: mean survival time, dose: 400.0 mg/kg/injection, schedule: Q01DX001 (ip), vehicle: other 96 % of control

COC1=C2C[C@@H](C)C[C@@H](OC)[C@@H](O)[C@H](C)/C=C(\C)[C@@H](OC(N)=O)[C@H](OC)/C=C\C=C(/C)C(=O)NC(=CC1=O)C2=O
inactive: endpoint: mean survival time, dose: 0.13 mg/kg/injection, schedule: Q01DX009 (ip), vehicle: saline with Tween-80 103 % of control | endpoint: mean survival time, dose: 0.25 mg/kg/injection, schedule: Q01DX009 (ip), vehicle: saline with Tween-80 103 % of control | endpoint: mean survival time, dose: 0.5 mg/kg/injection, schedule: Q01DX009 (ip), vehicle: saline with Tween-80 98 % of control | endpoint: mean survival time, dose: 1.0 mg/kg/injection, schedule: Q01DX009 (ip), vehicle: saline with Tween-80 101 % of control | endpoint: mean survival time, dose: 2.0 mg/kg/injection, schedule: Q01DX009 (ip), vehicle: saline with Tween-80 103 % of control | endpoint: mean survival time, dose: 4.0 mg/kg/injection, schedule: Q01DX009 (ip), vehicle: saline with Tween-80 108 % of control

CCN(CC)CCNc1nc(N)c(C#N)c(C#N)c1C#N
inactive: endpoint: mean survival time, dose: 100.0 mg/kg/injection, schedule: Q01DX001 (ip), vehicle: carboxymethylcellulose (CMC) 96 % of control | endpoint: mean survival time, dose: 200.0 mg/kg/injection, schedule: Q01DX001 (ip), vehicle: carboxymethylcellulose (CMC) 94 % of control | endpoint: mean survival time, dose: 400.0 mg/kg/injection, schedule: Q01DX001 (ip), vehicle: carboxymethylcellulose (CMC) 96 % of control

Clc1cccc(Cl)c1C[n+]1ccccc1
inactive: endpoint: mean survival time, dose: 9.38 mg/kg/injection, schedule: Q01DX001 (ip), vehicle: saline 110 % of control | endpoint: mean survival time, dose: 18.75 mg/kg/injection, schedule: Q01DX001 (ip), vehicle: saline 110 % of control

CCOC(=O)c1ccc(NCc2cnc(N)nc2N)cc1
inactive: endpoint: mean survival time, dose: 100.0 mg/kg/injection, schedule: Q01DX001 (ip), vehicle: saline 97 % of control | endpoint: mean survival time, dose: 200.0 mg/kg/injection, schedule: Q01DX001 (ip), vehicle: saline 90 % of control | endpoint: mean survival time, dose: 400.0 mg/kg/injection, schedule: Q01DX001 (ip), vehicle: saline 90 % of control

CC(C)=CCC/C(C)=C/Cn1c(=O)cc[nH]c1=O
inactive: endpoint: mean survival time, dose: 100.0 mg/kg/injection, schedule: Q04DX003 (ip), vehicle: other 96 % of control | endpoint: mean survival time, dose: 200.0 mg/kg/injection, schedule: Q04DX003 (ip), vehicle: other 86 % of control | endpoint: mean survival time, dose: 400.0 mg/kg/injection, schedule: Q04DX003 (ip), vehicle: other 86 % of control
